This note sets out measurements from ChEMBL document CHEMBL4689842, “EUbOPEN Chemogenomics Library wave 1” (2021).

Holding throughout (assay type): toxicity, cell-based
For one data set, the system named is HEK-293T. As to the kind of experiment: Incucyte cell viability with HEK293T. As to conditions: human, 10 µM, compound concentration 10 uM.
A further data set concerns Fibroblast. In words: Incucyte cell viability with human fibroblast. The note with it: 10 µM, compound concentration 10 uM.
For the next data set, the system named is U2OS. As to the kind of experiment: Incucyte cell viability with U2OS. The note with it: human, 10 µM, compound concentration 10 uM.
Setting [1] is: 0 h, replicate number 1, timepoint 0 hours.
The mark [2] stands for this setting: 6 h, replicate number 1, timepoint 6 hours.
The mark [3] stands for this setting: 6 h, replicate number 2, timepoint 6 hours.
[4] abbreviates: 12 h, replicate number 1, timepoint 12 hours.
Setting [5] is: 12 h, replicate number 2, timepoint 12 hours.
Setting [6] is: 18 h, replicate number 1, timepoint 18 hours.
Setting [7] is: 18 h, replicate number 2, timepoint 18 hours.
Setting [8] is: 24 h, replicate number 1, timepoint 24 hours.
Where [9] appears, read: 24 h, replicate number 2, timepoint 24 hours.
Setting [10] is: 0 h, replicate number 2, timepoint 0 hours.

Structures are written as SMILES.
Further: filed as whole numbers so only -1 and 0 and 1 occur.

For the compound `C[C@@H](N)Cc1c[nH]cn1.Cl.Cl`, the “Growth Rate” value with HEK-293T (setting [1]) came to 0; with HEK-293T (setting [2]), 1; with HEK-293T (setting [3]) it was 0; in the data set on HEK-293T (setting [4]) it was 1; with HEK-293T (setting [5]) it was 0; in the data set with HEK-293T (setting [6]) it was 1. The “Growth Rate” value in the data set with HEK-293T (setting [7]) is listed as 0; in the data set on HEK-293T (setting [8]), 1; with HEK-293T (setting [9]), 0; with Fibroblast (setting [1]) it was 1; with Fibroblast (setting [10]) it was 0; with Fibroblast (setting [2]) it was 0. Moreover, the “Growth Rate” value stood at 0 in the data set on Fibroblast (setting [4]); 0 in the data set on Fibroblast (setting [6]); 0 in the data set with Fibroblast (setting [8]); 1 with Fibroblast (setting [9]); 1 with U2OS (setting [1]); 0 in the data set on U2OS (setting [2]). The “Growth Rate” value is on record as 0 with U2OS (setting [4]); 1 in the data set on U2OS (setting [5]); 0 with U2OS (setting [6]); 1 in the data set on U2OS (setting [7]); 0 in the data set on U2OS (setting [8]); 1 in the data set on U2OS (setting [9]).

For `CCCCC#Cc1nc(NC)c2ncn([C@@H]3O[C@H](CO)[C@@H](O)[C@H]3O)c2n1`, the “Growth Rate” value with HEK-293T (setting [1]) is given as 0; with HEK-293T (setting [2]) it was 0; in the data set on HEK-293T (setting [3]), 1; with HEK-293T (setting [4]), 0; in the data set on HEK-293T (setting [5]) it was 1; with HEK-293T (setting [6]), 0. The “Growth Rate” value is listed as 1 with HEK-293T (setting [7]); 0 with HEK-293T (setting [8]); 1 in the data set with HEK-293T (setting [9]); 0 with Fibroblast (setting [1]); 1 in the data set with Fibroblast (setting [2]); 1 with Fibroblast (setting [4]). Moreover, the “Growth Rate” value with Fibroblast (setting [6]) amounted to 1; in the data set with Fibroblast (setting [8]), 1; in the data set on U2OS (setting [1]) it was 0; in the data set on U2OS (setting [2]), 0; in the data set with U2OS (setting [4]) it was 1; with U2OS (setting [5]), 0. In addition, the “Growth Rate” value with U2OS (setting [6]) and with U2OS (setting [8]) was 1 throughout.

For `CCC(=O)NC1Cc2ccccc2C(c2ccccc2)C1` (configuration not stated), the “Growth Rate” value in the data set on HEK-293T (setting [1]) came to 0; in the data set on HEK-293T (setting [2]), 1; in the data set with HEK-293T (setting [3]) it was 0; with HEK-293T (setting [4]) it was 0; with HEK-293T (setting [6]) it was 0; with HEK-293T (setting [8]), 0. The “Growth Rate” value with Fibroblast (setting [1]), with Fibroblast (setting [2]), with Fibroblast (setting [4]), with Fibroblast (setting [6]), in the data set on Fibroblast (setting [8]) and with U2OS (setting [1]) was 0 each time. Besides, the “Growth Rate” value in the data set on U2OS (setting [3]) came out at 0; with U2OS (setting [4]) it was 1; in the data set with U2OS (setting [6]), 1; with U2OS (setting [7]) it was 0; in the data set on U2OS (setting [8]), 0.

As to `Cc1cc2c(cc1C1(c3ccc(C(=O)O)cn3)CC1)C(C)(C)CCC2(C)C`, the “Growth Rate” value in the data set on HEK-293T (setting [1]) is 0; in the data set with HEK-293T (setting [2]), 1; in the data set with HEK-293T (setting [4]), 1; with HEK-293T (setting [5]), 0; with HEK-293T (setting [6]), 1; in the data set on HEK-293T (setting [7]), 0. Moreover, the “Growth Rate” value in the data set on HEK-293T (setting [8]) worked out at 0; in the data set with Fibroblast (setting [1]), 1; with Fibroblast (setting [10]), 0; in the data set with Fibroblast (setting [2]), 0; in the data set with Fibroblast (setting [3]) it was 1; with Fibroblast (setting [4]), 0. Moreover, the “Growth Rate” value in the data set on Fibroblast (setting [6]) turned out to be 1; in the data set on Fibroblast (setting [8]), 0; with Fibroblast (setting [9]), 1; with U2OS (setting [1]), 0; in the data set with U2OS (setting [4]) it was 1; with U2OS (setting [6]) it was 1. The “Growth Rate” value in the data set with U2OS (setting [8]) came out at 1.

On to `CC(C)C[C@H](NC(=O)N1CCCCCC1)C(=O)N[C@H](Cc1cn(C)c2ccccc12)C(=O)N[C@H](Cc1ccccn1)C(=O)O`, for which the “Growth Rate” value in the data set with HEK-293T (setting [1]) came to 0; in the data set on HEK-293T (setting [2]), 0; with HEK-293T (setting [3]) it was 1; in the data set on HEK-293T (setting [4]), 0; in the data set on HEK-293T (setting [5]), 1; in the data set on HEK-293T (setting [6]), 1. Moreover, the “Growth Rate” value with HEK-293T (setting [8]) is on record as 1; with Fibroblast (setting [1]), 0; with Fibroblast (setting [3]) it was 0; in the data set with Fibroblast (setting [5]), 0; in the data set with Fibroblast (setting [6]) it was 1; in the data set with Fibroblast (setting [8]), 1. Also, the “Growth Rate” value is recorded as 0 in the data set with Fibroblast (setting [9]); 0 with U2OS (setting [1]); 1 in the data set with U2OS (setting [3]); 1 with U2OS (setting [5]); 1 in the data set on U2OS (setting [6]); 1 with U2OS (setting [8]).

Turning to `CC(C)c1ccc(CC(=O)N2CCC[C@@H](c3cccc(OC(C)(C)C(=O)O)c3)C2)cc1`, the “Growth Rate” value in the data set on HEK-293T (setting [1]) worked out at 1; in the data set with HEK-293T (setting [10]), 0; with HEK-293T (setting [2]), 0; with HEK-293T (setting [3]) it was 1; in the data set on HEK-293T (setting [4]) it was 1; in the data set on HEK-293T (setting [6]), 0. Besides, the “Growth Rate” value with HEK-293T (setting [8]) was determined as 0; in the data set on HEK-293T (setting [9]), 1; with Fibroblast (setting [2]), 0; in the data set on Fibroblast (setting [4]) it was 1; in the data set on Fibroblast (setting [5]), 0; in the data set on Fibroblast (setting [6]), 0. Also, the “Growth Rate” value in the data set on Fibroblast (setting [8]) is given as 0; in the data set on U2OS (setting [1]), 0; with U2OS (setting [3]), 0; in the data set on U2OS (setting [5]), 1; in the data set on U2OS (setting [6]) it was 1; in the data set with U2OS (setting [8]), 1.

Turning to `Cc1cc2c(cc1-c1cc(/C=C/C(=O)O)ccc1O)C(C)(C)CCC2(C)C`, the “Growth Rate” value with HEK-293T (setting [1]) stood at 0; with HEK-293T (setting [2]) it was 1; in the data set with HEK-293T (setting [4]), 1; in the data set with HEK-293T (setting [6]), 1; with HEK-293T (setting [8]), 1; in the data set with Fibroblast (setting [1]) it was 0. Besides, the “Growth Rate” value worked out at 1 with Fibroblast (setting [4]); 1 in the data set with Fibroblast (setting [6]); 1 in the data set with Fibroblast (setting [8]); 0 in the data set with U2OS (setting [1]); 0 in the data set on U2OS (setting [3]); 1 in the data set on U2OS (setting [4]). For the same compound, the “Growth Rate” value stood at 0 in the data set with U2OS (setting [5]), 1 with U2OS (setting [6]), 0 with U2OS (setting [7]) and 1 with U2OS (setting [8]).

For `C/C(=N\NC(=O)[C@@H]1C(=O)NC[C@H]1c1ccccc1)c1cccc(Br)c1`, the “Growth Rate” value in the data set with HEK-293T (setting [1]) came to 1; with HEK-293T (setting [10]), 0; in the data set on HEK-293T (setting [2]), 0; in the data set on HEK-293T (setting [4]), 0; with HEK-293T (setting [6]), 0; with HEK-293T (setting [8]) it was 0. Also, the “Growth Rate” value was found to be 1 in the data set on Fibroblast (setting [1]); 0 in the data set with Fibroblast (setting [2]); 0 in the data set with Fibroblast (setting [4]); 0 in the data set with Fibroblast (setting [6]); 1 with Fibroblast (setting [8]); 0 with Fibroblast (setting [9]). Also, the “Growth Rate” value in the data set on U2OS (setting [1]) came out at 0; in the data set with U2OS (setting [2]), 0; with U2OS (setting [4]) it was 1; with U2OS (setting [5]), 0; in the data set with U2OS (setting [6]) it was 0; with U2OS (setting [8]) it was 0.

In the case of `COc1cc(OC)c(NC(=O)c2ccc(Cc3cc4c(cc3C)C(C)(C)CCC4(C)C)o2)c(OC)c1`, the “Growth Rate” value in the data set with HEK-293T (setting [1]) was 1; in the data set on HEK-293T (setting [10]) it was 0; in the data set with HEK-293T (setting [2]), 0; with HEK-293T (setting [3]), 1; in the data set with HEK-293T (setting [4]), 0; in the data set on HEK-293T (setting [6]), 0. Moreover, the “Growth Rate” value with HEK-293T (setting [8]) is 0; in the data set on Fibroblast (setting [1]), 0; in the data set on Fibroblast (setting [2]) it was 0; in the data set on Fibroblast (setting [5]), 1; in the data set with Fibroblast (setting [6]), 1; in the data set on Fibroblast (setting [8]), 1. Also, the “Growth Rate” value with U2OS (setting [1]) was found to be 0; in the data set with U2OS (setting [3]) it was 1; with U2OS (setting [4]), 1; in the data set with U2OS (setting [6]), 1; in the data set on U2OS (setting [8]), 0.

Take `Cc1c(C2=CCN(C(=O)N(C)C(C)C)CC2)nnn1-c1cccnc1F`: the “Growth Rate” value was determined as 0 in the data set on HEK-293T (setting [1]); 1 with HEK-293T (setting [2]); 1 with HEK-293T (setting [4]); 0 in the data set with HEK-293T (setting [6]); 1 in the data set on HEK-293T (setting [7]); 1 with HEK-293T (setting [8]). Further, the “Growth Rate” value was found to be 1 with Fibroblast (setting [1]); 0 with Fibroblast (setting [10]); 0 with Fibroblast (setting [2]); 0 with Fibroblast (setting [4]); 1 in the data set with Fibroblast (setting [5]); 0 with Fibroblast (setting [6]). Moreover, the “Growth Rate” value stood at 1 with Fibroblast (setting [7]); 0 in the data set on Fibroblast (setting [8]); 1 in the data set on Fibroblast (setting [9]); 0 in the data set on U2OS (setting [1]); 0 in the data set on U2OS (setting [3]); 1 with U2OS (setting [4]). Further, the “Growth Rate” value in the data set on U2OS (setting [6]) and with U2OS (setting [8]) was 1 in each case.
